Measured values reported in patent publication US20250382332A1, “NOVEL ALPHA-FACTOR BASED PEPTIDES WITH ANTIFUNGAL ACTIVITY” (INVAIO SCIENCES, INC., priority 2024, published 2025).
Peptide text beside a SMILES is read from it.

Test system: Botrytis cinerea (B05.10)
Test: Resazurin antifungal assay of 180 alpha-factor peptide variants towards Botrytis (Example 2)
Format: cell-based
Conditions: % inhibition of fungal growth, Botrytis conidia, resazurin; for Inhibition at 50 μM: peptide 50 μM; for Inhibition at 100 μM: peptide 100 μM
Procedure: The antifungal activity of 180 alpha-factor peptide variants towards Botrytis was tested. Experimental design:
Peptides corresponding to SEQ ID NO: 1-180 were chemically synthesized using the solid-phase synthesis method and resuspended in water to a stock solution of 1 mM. The stock solution was aliquoted in cryovials and stored at −80° C.
The Botrytis cinerea culture (B05.10) isolate was acquired from the Centraalbureau voor Schimmelcultures, the Netherlands. The Botrytis fungus was propagated on 0.5% V8 agar plates (200 ml V8 Juice, 3 g CaCO3, 15 g agar, 800-ml millipore water) at 20° C., in a 12 h photoperiod for 21 days.
Fungal conidia were harvested by scraping a Botrytis plate flooded with 1 ml water with 0.1% Tween 80 solution. Conidia were then collected in a 50 ml falcon tube by passing the solution through a 40 micron filter. The solution was then centrifuged at 6000 rpm and the pellet was resuspended in 1 ml of 20% glycerol. The conidia concentration of the resulting solution was counted using a hemocytometer. The stock was diluted to […] using 20% glycerol and frozen in 100 μl aliquots in −80° C. until further use.
Peptides were tested for activity against Botrytis, using the resazurin assay. For this, fungal stock conidia was first diluted to 5000 conidia/well. 50 μl of the spore suspension was added to each well of the sterile 96-well clear bottom testing plate and mixed with 50 μl of peptide solutions to a final concentration of 100, 50, 20, 15 and 10 μM. The plate was incubated for 24 h at 20° C. After 24 h, 10 μl of resazurin dye was added to the microtiter plate and incubated again for […]. Fluorescence was measured at 570/620 nm after 4 h of incubation with resazurin.
Growth inhibition was calculated by subtracting the fluorescence values of conidia only wells from sample wells and depicted as % inhibition of fungal growth. Four technical replicates were used for all treatments.

Row | Compound | Inhibition at 50 μM | Inhibition at 100 μM
1 | CSCC[C@H](NC(=O)[C@@H]1CCCN1C(=O)[C@H](CCC(N)=O)NC(=O)CNC(=O)[C@H](CO)NC(=O)[C@H](CCCCN)NC(=O)[C@H](CC(C)C)NC(=O)[C@H](CC(N)=O)NC(=O)[C@H](CC(C)C)NC(=O)[C@H](Cc1ccccc1)NC(=O)[C@H](Cc1c[nH]cn1)NC(=O)[C@@H](N)CCCCN)C(=O)N[C@@H](Cc1ccc(O)cc1)C(=O)O [compound 27] (H-KHFLNLKSGQPMY-OH; N-terminus and C-terminus assumed) | 90.58% | 100%
2 | CSCC[C@H](NC(=O)[C@@H]1CCCN1C(=O)[C@H](CCC(N)=O)NC(=O)CNC(=O)[C@@H]1CCCN1C(=O)[C@H](CCCCN)NC(=O)[C@H](CC(C)C)NC(=O)[C@H](C)NC(=O)[C@H](CC(C)C)NC(=O)[C@H](Cc1ccccc1)NC(=O)[C@H](Cc1c[nH]cn1)NC(=O)[C@@H](N)CCCCN)C(=O)N[C@@H](Cc1ccc(O)cc1)C(=O)O [compound 28] (H-KHFLALKPGQPMY-OH; N-terminus and C-terminus assumed) | <90% | 100%
3 | CSCC[C@H](NC(=O)[C@@H]1CCCN1C(=O)[C@H](CCC(N)=O)NC(=O)CNC(=O)[C@@H]1CCCN1C(=O)[C@H](CCCCN)NC(=O)[C@H](Cc1ccccc1)NC(=O)[C@H](CCCNC(=N)N)NC(=O)[C@H](CC(C)C)NC(=O)[C@H](CC(=O)O)NC(=O)[C@H](Cc1c[nH]cn1)NC(=O)[C@@H](N)CCCCN)C(=O)N[C@@H](Cc1ccc(O)cc1)C(=O)O [compound 29] (H-KHDLRFKPGQPMY-OH; N-terminus and C-terminus assumed) | <90% | 97.77%
4 | CC[C@H](C)[C@H](NC(=O)[C@@H](NC(=O)[C@H](CC(C)C)NC(=O)[C@H](Cc1c[nH]c2ccccc12)NC(=O)[C@H](Cc1c[nH]cn1)NC(=O)[C@@H]1CCCN1)[C@@H](C)O)C(=O)N[C@@H](CCCCN)C(=O)N1CCC[C@H]1C(=O)NCC(=O)N[C@@H](CCC(N)=O)C(=O)N1CCC[C@H]1C(=O)N[C@@H](CCSC)C(=O)N[C@@H](Cc1ccc(O)cc1)C(=O)O [compound 30] (H-PHWLTIKPGQPMY-OH; N-terminus and C-terminus assumed) | <90% | <90%
5 | CC[C@H](C)[C@H](NC(=O)[C@H](Cc1c[nH]c2ccccc12)NC(=O)[C@H](CCC(=O)O)NC(=O)[C@@H](N)CCCCN)C(=O)N[C@@H](CCC(N)=O)C(=O)N[C@@H](CC(C)C)C(=O)N[C@@H](CCCCN)C(=O)N[C@@H](CC(C)C)C(=O)NCC(=O)N[C@@H](CCC(N)=O)C(=O)N1CCC[C@H]1C(=O)N[C@@H](CCSC)C(=O)N[C@@H](Cc1ccc(O)cc1)C(=O)O [compound 31] (H-KEWIQLKLGQPMY-OH; N-terminus and C-terminus assumed) | <90% | <90%
6 | CSCC[C@H](NC(=O)CNC(=O)[C@H](CCC(N)=O)NC(=O)CNC(=O)[C@@H]1CCCN1C(=O)[C@H](CCCCN)NC(=O)[C@H](CC(C)C)NC(=O)[C@H](CO)NC(=O)[C@H](CC(C)C)NC(=O)[C@H](Cc1c[nH]c2ccccc12)NC(=O)[C@H](CO)NC(=O)[C@@H](N)CCCCN)C(=O)N[C@@H](Cc1ccc(O)cc1)C(=O)O [compound 32] (H-KSWLSLKPGQGMY-OH; N-terminus and C-terminus assumed) | <90% | <90%
7 | CSCC[C@H](NC(=O)[C@@H]1CCCN1C(=O)[C@H](CCC(=O)O)NC(=O)CNC(=O)[C@@H]1CCCN1C(=O)[C@H](CCCCN)NC(=O)[C@H](Cc1ccccc1)NC(=O)[C@H](CCC(N)=O)NC(=O)CNC(=O)[C@H](Cc1c[nH]c2ccccc12)NC(=O)[C@H](CCCNC(=N)N)NC(=O)[C@@H](N)Cc1c[nH]c2ccccc12)C(=O)N[C@@H](Cc1ccc(O)cc1)C(=O)O [compound 33] (H-WRWGQFKPGEPMY-OH; N-terminus and C-terminus assumed) | <90% | <90%
8 | CSCC[C@H](NC(=O)CNC(=O)[C@H](CCC(N)=O)NC(=O)CNC(=O)[C@@H]1CCCN1C(=O)[C@H](Cc1ccccc1)NC(=O)[C@H](Cc1ccccc1)NC(=O)[C@H](CO)NC(=O)[C@H](CC(C)C)NC(=O)[C@H](Cc1c[nH]c2ccccc12)NC(=O)[C@H](Cc1c[nH]cn1)NC(=O)[C@@H]1CCCN1)C(=O)N[C@@H](Cc1ccc(O)cc1)C(=O)O [compound 34] (H-PHWLSFFPGQGMY-OH; N-terminus and C-terminus assumed) | <90% | <90%
9 | CSCC[C@H](NC(=O)[C@@H]1CCCN1C(=O)[C@H](CCSC)NC(=O)CNC(=O)[C@@H](NC(=O)[C@H](CCCCN)NC(=O)[C@H](CC(C)C)NC(=O)[C@H](CCC(=O)O)NC(=O)[C@H](CC(C)C)NC(=O)[C@H](Cc1c[nH]c2ccccc12)NC(=O)[C@H](CS)NC(=O)[C@@H](N)CCCCN)[C@@H](C)O)C(=O)N[C@@H](Cc1ccc(O)cc1)C(=O)O [compound 35] (H-KCWLELKTGMPMY-OH; N-terminus and C-terminus assumed) | <90% | 97.61%
10 | CSCC[C@H](NC(=O)[C@H](Cc1c[nH]cn1)NC(=O)[C@@H](N)Cc1c[nH]c2ccccc12)C(=O)N[C@@H](CC(C)C)C(=O)N[C@@H](CCC(=O)O)C(=O)N[C@@H](Cc1ccccc1)C(=O)N[C@@H](CCCCN)C(=O)N1CCC[C@H]1C(=O)NCC(=O)N[C@@H](CCC(N)=O)C(=O)N1CCC[C@H]1C(=O)N[C@@H](CCSC)C(=O)N[C@@H](Cc1ccc(O)cc1)C(=O)O [compound 36] (H-WHMLEFKPGQPMY-OH; N-terminus and C-terminus assumed) | <90% | <90%
11 | CC[C@H](C)[C@H](NC(=O)[C@H](Cc1c[nH]c2ccccc12)NC(=O)[C@H](Cc1c[nH]cn1)NC(=O)[C@@H]1CCCN1)C(=O)N[C@@H](CCC(N)=O)C(=O)N[C@@H](CC(C)C)C(=O)N[C@@H](Cc1ccccc1)C(=O)N[C@@H](CC(N)=O)C(=O)NCC(=O)N[C@@H](CCC(N)=O)C(=O)N1CCC[C@H]1C(=O)N[C@@H](CCSC)C(=O)N[C@@H](Cc1ccc(O)cc1)C(=O)O [compound 37] (H-PHWIQLFNGQPMY-OH; N-terminus and C-terminus assumed) | <90% | <90%
12 | CSCC[C@H](NC(=O)[C@@H]1CCCN1C(=O)[C@H](CCC(=O)O)NC(=O)CNC(=O)[C@@H]1CCCN1C(=O)[C@H](CCCCN)NC(=O)[C@H](Cc1ccccc1)NC(=O)[C@H](CCC(N)=O)NC(=O)[C@H](CC(C)C)NC(=O)[C@@H](NC(=O)[C@H](Cc1c[nH]cn1)NC(=O)[C@@H](N)CCCCN)C(C)C)C(=O)N[C@@H](Cc1ccc(O)cc1)C(=O)O [compound 38] (H-KHVLQFKPGEPMY-OH; N-terminus and C-terminus assumed) | <90% | <90%
13 | CSCC[C@H](NC(=O)[C@@H]1CCCN1C(=O)[C@H](CCC(N)=O)NC(=O)CNC(=O)[C@@H]1CCCN1C(=O)[C@H](CCCCN)NC(=O)[C@H](Cc1ccccc1)NC(=O)[C@H](CCC(N)=O)NC(=O)CNC(=O)[C@H](Cc1c[nH]c2ccccc12)NC(=O)[C@H](CO)NC(=O)[C@@H](N)CCCCN)C(=O)N[C@@H](Cc1ccc(O)cc1)C(=O)O [compound 39] (H-KSWGQFKPGQPMY-OH; N-terminus and C-terminus assumed) | <90% | <90%
14 | CC[C@H](C)[C@H](NC(=O)[C@H](Cc1c[nH]c2ccccc12)NC(=O)[C@H](CCC(=O)O)NC(=O)[C@@H]1CCCN1)C(=O)N[C@@H](CCC(N)=O)C(=O)N[C@@H](CC(C)C)C(=O)N[C@@H](CCCCN)C(=O)N[C@H](C(=O)NCC(=O)N[C@@H](CCSC)C(=O)N1CCC[C@H]1C(=O)N[C@@H](CCSC)C(=O)N[C@@H](Cc1ccc(O)cc1)C(=O)O)[C@@H](C)O [compound 40] (H-PEWIQLKTGMPMY-OH; N-terminus and C-terminus assumed) | <90% | <90%
15 | CSCC[C@H](NC(=O)[C@@H]1CCCN1C(=O)[C@H](CCC(N)=O)NC(=O)CNC(=O)[C@@H]1CCCN1C(=O)[C@H](CCCCN)NC(=O)[C@H](Cc1ccccc1)NC(=O)[C@H](CC(N)=O)NC(=O)[C@H](CC(C)C)NC(=O)[C@H](CC(C)C)NC(=O)[C@H](Cc1c[nH]cn1)NC(=O)[C@@H]1CCCN1)C(=O)N[C@@H](Cc1ccc(O)cc1)C(=O)O [compound 41] (H-PHLLNFKPGQPMY-OH; N-terminus and C-terminus assumed) | <90% | <90%
16 | CSCC[C@H](NC(=O)[C@@H]1CCCN1C(=O)[C@H](CCC(N)=O)NC(=O)CNC(=O)[C@H](CO)NC(=O)[C@H](Cc1c[nH]c2ccccc12)NC(=O)[C@H](CC(C)C)NC(=O)[C@H](CCC(N)=O)NC(=O)CNC(=O)[C@H](CO)NC(=O)[C@H](Cc1c[nH]cn1)NC(=O)[C@@H]1CCCN1)C(=O)N[C@@H](Cc1ccc(O)cc1)C(=O)O [compound 42] (H-PHSGQLWSGQPMY-OH; N-terminus and C-terminus assumed) | <90% | <90%
